Assay results published in patent publication US20250375503A1, “Method and System for Tuning Hormone Receptors through the Dynamic Intravenous Delivery of a Hormone According to a Target Physiological Cadence” (Well Cell Global LLC, priority 2024, published 2025).

Test system: human kidney
Experiment: periodic infusion of insulin into a perfused, extracted three-day-old human kidney (similar to PIR treatment)
Source text: For example, using a three-day-old human kidney that was extracted or otherwise removed from the human body, after a control period, the kidney was augmented with a periodic infusion of insulin for approximately two hours at a concentration similar to the amount of insulin projected to be seen by a kidney in situ in a person who would receive physiological insulin resensitization (PIR) treatment.
The perfusate was sampled before and after passing through the kidney at five-to-fifteen-minute intervals to determine if glucose was being removed and to determine any changes in electrolytes, such as sodium and potassium.
The ability of the kidney to generate and excrete urine was monitored via a catheter attached to a ureter.
Two-millimeter punch biopsies were examined approximately every fifteen minutes with a specialized Acquyre Biosciences microscope that produces pseudo-colored images at a cellular level that reflect the extent of intracellular organellar movement. Intracellular movement is dependent on the availability of cytoplasmic ATP (adenosine triphosphate).

Substance: insulin
- ability of the kidney to generate and excrete urine (monitored via catheter attached to a ureter, after about one hour of treatment, no excretion during control period): the kidney began to excrete urine
- glucose ingested by the kidney from the perfusate (perfusate sampled before and after passing through the kidney at five-to-fifteen-minute intervals, periodic insulin infusion for approximately two hours, versus control period): well in excess of the control level
- alteration of electrolyte concentrations (sodium, potassium) in the perfusate (perfusate sampled before and after passing through the kidney, periodic insulin infusion, versus control period): better alter the electrolyte concentrations in a manner similar to a kidney in situ
- intracellular organellar movement in punch biopsies (reflects cytoplasmic ATP) (two-millimeter punch biopsies, Acquyre Biosciences microscope, after approximately thirty minutes of perfusion, relative to control period): obvious increase in intracellular movement relative to the control period
